This is an account of results in patent publication US12264159B2, “Functionalized heterocycles as antiviral agents” (Enanta Pharmaceuticals, Inc., priority 2018, dated 2025).

One data set has as its system HBV in 2.2.15 cells. As to the kind of experiment: 2.2.15 cells: viral product in cell lysates quantified via quantitative real time PCR. Format: cell-based, hepatitis B virus (HBV). Particulars: Hepatitis B virus, 120 h, day 5 post treatment, 50% reduction of viral product vs no drug controls, readout (qPCR, HBsAg or HBeAg) not specified for the column. The procedure:
2.2.15 cells are passaged upon attaining confluency in DMEM/F12 media in the presence of 10% FBS, Penn/Strep, and 250 ug/mL G418. Novel compounds are 5 fold serially diluted in DMSO and added to 96 well plates containing 35,000 cells/well at a 1:200 dilution so that the final concentration of DMSO is 0.5%. On day 5, post treatment cell lysates and supernatants are harvested for analysis.
Cells are lysed using Agilent Sidestep Lysis buffer, diluted 1:100 and quantified via quantitative real time PCR. Commercially available ELISA kits are used to quantitate the viral proteins HBsAg (Alpco) or HBeAg (US Biological) by following the manufacturer's recommended protocol after diluting samples to match the linear range of their respective assays. Irrespective of readout, compound concentrations that reduce viral product accumulation in the cell lysates or supernatants by 50% relative to no drug controls (EC50) are reported; EC50 ranges are as follows: A<0.1 μM; B 0.2-1 μM; C>1 μM.
On the technique in general: In qPCR the cycle at which signal appears reflects the starting amount.

Data set [1] is described as follows: Compound induced cellular toxicity in HepG2 cells, ATPlite 1Step. The following applies: human, three days exposure, 50% reduction of total ATP vs no drug controls. Format: cell-based. The procedure: At day 3, post seeding cells are treated with ATPlite 1Step according to the manufacturer's instructions.
(In general: Cellular ATP, detected with luciferase, serves as a proxy for viable cell number.)

pEC50: −log10 of the molar value.

`CC(C)(C)[C@@H]1Cn2cnc(-c3ccc(F)cc3)c2-c2cc(=O)c(C(=O)O)cn21` [Example 207, (R)-6-(tert-butyl)-1-(4-fluorophenyl)-10-oxo-5,6-dihydro-10H-imidazo[1,5-a]pyrido[2,1-c]pyrazine-9-carboxylic acid] gave a pEC50 in the data set with HBV in 2.2.15 cells of over 7.00. Further, the CC50 at 3 days in data set [1] is over 25000 nM.

Consider `CC(C)(C)[C@@H]1Cn2nc(-c3cccc(F)c3)c(-c3cccc(F)c3)c2-c2cc(=O)c(-c3ncn[nH]3)cn21` [Example 193, (R)-6-(tert-butyl)-1,2-bis(3-fluorophenyl)-9-(1H-1,2,4-triazol-5-yl)-5,6-dihydro-10H-pyrazolo[1,5-a]pyrido[2,1-c]pyrazin-10-one], for which the pEC50 in the data set with HBV in 2.2.15 cells is over 7.00. Further, in data set [1], the CC50 at 3 days was over 25000 nM. The like results for `CC(C)(C)[C@@H]1Cn2nc(C3CC3)c(-c3cccs3)c2-c2cc(=O)c(C(=O)O)cn21` [Example 156, (R)-6-(tert-butyl)-2-cyclopropyl-10-oxo-1-(thiophen-2-yl)-5,6-dihydro-10H-pyrazolo[1,5-a]pyrido[2,1-c]pyrazine-9-carboxylic acid] were, in that order, over 7.00 and over 25000 nM.

As for `CC(C)COc1ccccc1-c1cc2n(n1)C[C@@H](C(C)(C)C)n1cc(C(=O)O)c(=O)cc1-2` [Example 80, (R)-6-(tert-butyl)-2-(2-isobutoxyphenyl)-10-oxo-5,6-dihydro-10H-pyrazolo[1,5-a]pyrido[2,2-c]pyrazine-12-carboxylic acid], in the data set with HBV in 2.2.15 cells, the pEC50 is over 7.00. Moreover, the CC50 at 3 days in data set [1] was over 25000 nM. In turn, `CC(C)(C)[C@@H]1Cn2nc(-c3cccc4c3OCCO4)cc2-c2cc(=O)c(C(=O)O)cn21` [Example 57, (R)-6-(tert-butyl)-2-(2,3-dihydrobenzo[b][1,4]dioxin-5-yl)-10-oxo-5,6-dihydro-10H-pyrazolo[1,5-a]pyrido[2,2-c]pyrazine-12-carboxylic acid] gave a pEC50 in the data set with HBV in 2.2.15 cells of over 7.00. This compound yielded a CC50 at 3 days in data set [1] of over 25000 nM. As to `Cc1ccc(-c2cnn3c2-c2cc(=O)c(C(=O)O)cn2[C@H](C(C)(C)C)C3)cc1` [Example 126, (R)-6-(tert-butyl)-10-oxo-1-(p-tolyl)-5,6-dihydro-10H-pyrazolo[1,5-a]pyrido[2,1-c]pyrazine-9-carboxylic acid], in the data set with HBV in 2.2.15 cells, the pEC50 was over 7.00. The CC50 at 3 days in data set [1] is over 25000 nM. On to `CC(C)Oc1ccccc1-c1cc2n(n1)C[C@@H](C(C)(C)C)n1cc(C(=O)O)c(=O)cc1-2` [Example 82, (R)-6-(tert-butyl)-2-(2-isopropoxyphenyl)-10-oxo-5,6-dihydro-10H-pyrazolo[1,5-a]pyrido[2,2-c]pyrazine-12-carboxylic acid], for which the pEC50 in the data set on HBV in 2.2.15 cells is over 7.00. The CC50 at 3 days in data set [1] is over 25000 nM. The like results for `O=C(O)c1cn2c(cc1=O)-c1c(-c3cccc(F)c3)c(-c3cccc(F)c3)nn1CC2` [Example 201, 1,2-bis(3-fluorophenyl)-10-oxo-5,6-dihydro-10H-pyrazolo[1,5-a]pyrido[2,1-c]pyrazine-9-carboxylic acid] were, in that order, over 7.00 and over 25000 nM. The like results for `CC(C)(C)[C@@H]1Cn2nc(C3CC3)c(-c3ccccc3)c2-c2cc(=O)c(C(=O)O)cn21` [Example 149, (R)-6-(tert-butyl)-2-cyclopropyl-10-oxo-1-phenyl-5,6-dihydro-10H-pyrazolo[1,5-a]pyrido[2,1-c]pyrazine-9-carboxylic acid] were, in that order, over 7.00 and over 25000 nM. In the same order, the values of `COc1ccc(OC)c(-c2cc3n(n2)C[C@@H](C(C)(C)C)n2cc(C(=O)O)c(=O)cc2-3)c1` [Example 32, (R)-6-(tert-butyl)-2-(2,5-dimethoxyphenyl)-10-oxo-5,6-dihydro-10H-pyrazolo[1,5-a]pyrido[2,2-c]pyrazine-12-carboxylic acid] are over 7.00 and over 25000 nM. In the data set on HBV in 2.2.15 cells, `CC(C)(C)[C@@H]1Cn2nc(-c3cccc4occc34)cc2-c2cc(=O)c(C(=O)O)cn21` [Example 28, (R)-2-(benzofuran-4-yl)-6-(tert-butyl)-10-oxo-5,6-dihydro-10H-pyrazolo[1,5-a]pyrido[2,2-c]pyrazine-12-carboxylic acid] showed a pEC50 of over 7.00. In data set [1], the 50% cytotoxic concentration (CC50) at 3 days was over 25000 nM.

In the data set with HBV in 2.2.15 cells, `CC(C)[C@@H]1Cn2nc(C3CC3)c(-c3ccc(O)cc3)c2-c2cc(=O)c(C(=O)O)cn21` [Example 143, (R)-2-cyclopropyl-1-(4-hydroxyphenyl)-6-isopropyl-10-oxo-5,6-dihydro-10H-pyrazolo[1,5-a]pyrido[2,1-c]pyrazine-9-carboxylic acid] gave a negative-log EC50 (pEC50) of over 7.00. In data set [1], this compound gave a CC50 at 3 days of over 25000 nM. `CC(C)(C)[C@@H]1Cn2nc(-c3cc(F)ccc3OCC(F)(F)F)c(Cl)c2-c2cc(=O)c(C(=O)O)cn21` [Example 89, (R)-6-(tert-butyl)-1-chloro-2-(5-fluoro-2-(2,2,2-trifluoroethoxy)phenyl)-10-oxo-5,6-dihydro-10H-pyrazolo[1,5-a]pyrido[2,1-c]pyrazine-9-carboxylic acid] had a pEC50 in the data set on HBV in 2.2.15 cells of over 7.00. Turning to `CC(C)(C)[C@@H]1Cn2ncc(-c3ccccc3C(F)(F)F)c2-c2cc(=O)c(C(=O)O)cn21` [Example 121, (R)-6-(tert-butyl)-10-oxo-1-(2-(trifluoromethyl)phenyl)-5,6-dihydro-10H-pyrazolo[1,5-a]pyrido[2,1-c]pyrazine-9-carboxylic acid], in the data set on HBV in 2.2.15 cells, the pEC50 was under 6.00. Consider `CC(C)[C@@H]1Cn2nc(C3CC3)c(-c3ccccc3O)c2-c2cc(=O)c(C(=O)O)cn21` [Example 141, (R)-2-cyclopropyl-1-(2-hydroxyphenyl)-6-isopropyl-10-oxo-5,6-dihydro-10H-pyrazolo[1,5-a]pyrido[2,1-c]pyrazine-9-carboxylic acid], for which the pEC50 with HBV in 2.2.15 cells was over 7.00. In the case of `CC(C)[C@@H]1Cn2nc(C3CC3)c(-c3ccnnc3)c2-c2cc(=O)c(C(=O)O)cn21` [Example 145, (R)-2-cyclopropyl-6-isopropyl-10-oxo-1-(pyridazin-4-yl)-5,6-dihydro-10H-pyrazolo[1,5-a]pyrido[2,1-c]pyrazine-9-carboxylic acid], in the data set with HBV in 2.2.15 cells, the pEC50 is 6.00 to 6.70.

In the data set on HBV in 2.2.15 cells, `CCOc1ccccc1-c1cnn2c1-c1cc(=O)c(C(=O)O)cn1[C@H](C(C)(C)C)C2` [Example 124, (R)-6-(tert-butyl)-1-(2-ethoxyphenyl)-10-oxo-5,6-dihydro-10H-pyrazolo[1,5-a]pyrido[2,1-c]pyrazine-9-carboxylic acid] gave a pEC50 of over 7.00. In the case of `CC(C)[C@@H]1Cn2nc(C3CC3)c(-c3cnco3)c2-c2cc(=O)c(C(=O)O)cn21` [Example 139, (R)-2-cyclopropyl-6-isopropyl-1-(oxazol-5-yl)-10-oxo-5,6-dihydro-10H-pyrazolo[1,5-a]pyrido[2,1-c]pyrazine-9-carboxylic acid], the pEC50 in the data set on HBV in 2.2.15 cells is 6.00 to 6.70. Consider `CCOc1ccccc1-c1nn2c(c1F)-c1cc(=O)c(C(=O)O)cn1[C@H](C(C)(C)C)C2` [Example 92, (R)-6-(tert-butyl)-2-(2-ethoxyphenyl)-1-fluoro-10-oxo-5,6-dihydro-10H-pyrazolo[1,5-a]pyrido[2,1-c]pyrazine-9-carboxylic acid], for which the pEC50 in the data set with HBV in 2.2.15 cells is over 7.00. With `CC(C)[C@@H]1Cn2nc(-c3ccnnc3)c(-c3ccnnc3)c2-c2cc(=O)c(C(=O)O)cn21` [Example 173, (R)-6-isopropyl-10-oxo-1,2-di(pyridazin-4-yl)-5,6-dihydro-10H-pyrazolo[1,5-a]pyrido[2,1-c]pyrazine-9-carboxylic acid], the pEC50 in the data set with HBV in 2.2.15 cells was 6.00 to 6.70.

Compound `CC(C)[C@@H]1Cn2nc(-c3cccnc3)c(-c3cccnc3)c2-c2c(F)c(=O)c(C(=O)O)cn21` [Example 189, (R)-11-fluoro-6-isopropyl-10-oxo-1,2-di(pyridin-3-yl)-5,6-dihydro-10H-pyrazolo[1,5-a]pyrido[2,1-c]pyrazine-9-carboxylic acid] showed a pEC50 with HBV in 2.2.15 cells of 6.00 to 6.70.

In the data set on HBV in 2.2.15 cells, `Cc1ncc(-c2cnn3c2-c2cc(=O)c(C(=O)O)cn2[C@H](C(C)(C)C)C3)s1` [Example 105, (R)-6-(tert-butyl)-1-(2-methylthiazol-5-yl)-10-oxo-5,6-dihydro-10H-pyrazolo[1,5-a]pyrido[2,1-c]pyrazine-9-carboxylic acid] showed a pEC50 of 6.00 to 6.70. The compound `CC(C)[C@@H]1Cn2nc(-c3ccnnc3)c(-c3ccnnc3)c2-c2c(F)c(=O)c(C(=O)O)cn21` [Example 183, (R)-11-fluoro-6-isopropyl-10-oxo-1,2-di(pyridazin-4-yl)-5,6-dihydro-10H-pyrazolo[1,5-a]pyrido[2,1-c]pyrazine-9-carboxylic acid] showed a pEC50 with HBV in 2.2.15 cells of 6.00 to 6.70.

Consider `O=C(O)c1cn2c(cc1=O)-c1c(-c3ccc(F)cc3)c(-c3ccc(F)cc3)nn1CC2` [Example 200, 1,2-bis(4-fluorophenyl)-10-oxo-5,6-dihydro-10H-pyrazolo[1,5-a]pyrido[2,1-c]pyrazine-9-carboxylic acid], for which the pEC50 in the data set on HBV in 2.2.15 cells is over 7.00. Same read-out and setting: the same measure for `CC(C)(C)[C@@H]1Cn2ncc(-c3cccnc3)c2-c2cc(=O)c(C(=O)O)cn21` [Example 118, (R)-6-(tert-butyl)-10-oxo-1-(pyridin-3-yl)-5,6-dihydro-10H-pyrazolo[1,5-a]pyrido[2,1-c]pyrazine-9-carboxylic acid]: over 7.00; for `CC(C)[C@@H]1Cn2nc(C3CC3)c(-c3cnsc3)c2-c2cc(=O)c(C(=O)O)cn21` [Example 138, (R)-2-cyclopropyl-6-isopropyl-1-(isothiazol-4-yl)-10-oxo-5,6-dihydro-10H-pyrazolo[1,5-a]pyrido[2,1-c]pyrazine-9-carboxylic acid]: over 7.00.

One may read the pEC50 as −log10 of the EC50, conventionally taken in molar units. The term CC50 denotes the concentration giving 50% cytotoxicity.
